Measured values as given in patent US10792331B2, “Methods for reducing cardiotoxicity from chemotherapy by administering humanin analog compositions” (LOS ANGELES BIOMEDICAL RESEARCH INSTITUTE AT HARBOR-UCLA …, priority 2015, dated 2020).
“Also recorded” adds a separate entry of the source. Like-named read-outs stand apart in the source and are kept apart here. Ends that are not written are not given here.

Columns and labels:
[1] = system: Dox-induced cardiotoxicity mouse model; conditions: in vivo
[2] = Example 3: outcome and general health (deaths, body weight, heart weight)
cardiomyocytes [3] = conditions: mouse, in vivo
[4] = Example 1: DOX ± HNG in B16 cell transplanted mice study, body weight and survival; conditions: for Body weight: B16 inoculated C57BL/6 male mice, DOX 5 mg/Kg weekly IP, HNG 5 mg/Kg daily IP
Protocol: Mouse B16 melanoma cells were cultured in 75 cm^2 flasks and incubated at 37° C. in a humidified chamber with 5% CO2 to generate enough cells for inoculating 10,000 cells/mouse×40 mice. After 5-7 days culture, B16 cells were collected and cell viability determined using the Trypan Blue stain and the number of living cells were counted under microscope.
Treatment Schedule: 7 weeks old C57BL/6 male mouse, control without tumor inoculation (n=6) and four other groups (n=10 each group) received B16 tumor cells (10,000/mouse) injection under the skin in the right flank. One group was not treated; another group received HNG IP injection, 5 mg/Kg BM, daily×40 days (HNG); the third group received Doxorubicin (DOX), IP injection, 5 mg/Kg BW, weekly×6 injections; and the last group DOX+HNG (Table 5).
The mice in the DOX treated group would receive 6 weekly injections of DOX and daily injection of HNG until Day 40. Body weights and tumor cell injection site were checked 3 times per week. Echocardiogram was scheduled at day 26 and repeated at day 40. Twenty four hours after echocardiogram examination, animals were sacrificed; whole blood, plasma, epididymis, heart, lung, testis, liver, spleen, kidney, intestine, muscle, skin, and femur bone were collected. Sperm in the cauda epididymis were counted and COMET assay for DNA damage of sperm assessed. Whole blood was collected for CBC analysis and plasma saved for measurement of HNG level or other bio-parameters. Testes were fixed in Bouin's or formaldehyde for immunohistochemistry and TUNEL analyses.

cardiac fibrosis [5] = conditions: mouse, in vivo
[6] = system: Atrial Natriuretic Factor (ANF); conditions: mouse, in vivo
cells = conditions: compared with HN; cited from earlier work
membrane receptor = conditions: cited from earlier work
[7] = system: uncoupling protein 2 (Ucp2); assay: Example 3: Ucp2 protein by ProteinSimple (Wes) assay in ventricle lysates; format: in vivo, mouse
Protocol: Left ventricle samples from mice were sonicated in RIPA buffer (Sigma) supplemented with EDTA-free protease inhibitor cocktail tablets (Roche), and cell debris removed by centrifugation. The protein concentration was analyzed by Bio-Rad Protein Assay and measured by Beckman Du-640 Spectrophotometer.
Protein measurement for the uncoupling protein 2 (Ucp2) was performed using ventricle tissue lysates from control, Dox only, Dox+HNG, Dox+DRZ, and Dox+HNG+DRZ treated mice. Protein expression was quantified by Wes Separation Module with 25 Capillary Cartridges for 12-230 kDa (Wes®). Proteins (4 microgram/sample) were separated through a size-resolving matrix in capillaries, immobilized to the inner capillary wall, incubated with anti-Ucp2 rabbit monoclonal antibody (Cell Signaling) at concentration of 1 μg/ml and anti-rabbit secondary antibodies before detection using chemiluminescence. Signals reflected as the area under the curve of Ucp2 protein were generated automatically at the end of the run. The Ucp2 protein levels were quantified by a ratio of the area under the curve from each sample that was normalized by the corresponding area under the curve of the corresponding total protein.

cardiomyocytes [8] = assay: Example 3: cardiomyocyte apoptosis by tropomyosin/TUNEL co-localization; conditions: for cardiomyocytes apoptosis: ten weeks, compared to control
cardiac fibrosis [9] = assay: Example 3: Masson's Trichrome quantification of fibrosis in hearts; conditions: for cardiac fibrosis: compared to controls
[10] = system: Atrial Natriuretic Factor (ANF); assay: Example 3: real-time PCR of ANF transcripts in left ventricular tissue; conditions: for expression levels of ANF mRNA: heart, compared to control
[11] = mouse, in vivo
[12] = system: Dox-induced cardiotoxicity mouse model; assay: Example 3: M-mode echocardiography of cardiac function
[13] = system: nuclear-gene-encoded mitochondrial gene expression; assay: Example 3: mitochondrial gene focused qRT-PCR array of mouse hearts
[14] = system: DOX induced cardiotoxicity; assay: Example 2: echocardiogram ejection fraction, Dox, HNG and DRZ alone or in combinations; format: in vivo, mouse
Protocol: In this second experiment, adult male mice were used. These mice received for 8 weeks IP injections of saline daily (control), Doxorubicin (DOX 3 mg/week IP for 8 injections), HNG 5 mg/day IP), Dexrazoxane (DRZ 60 mg/week IP at the same time as Doxorubicin) either alone or in combinations as shown in FIG. 5. All animals received 8 weeks of injections.

[15] = cited from earlier work
BAX = BAX (Homo sapiens, UniProt Q07812); conditions: cited from earlier work
IGFBP-3 = IGFBP-3 (Homo sapiens, UniProt P17936); conditions: cited from earlier work
[16] = system: DOX-induced cardiotoxicity; assay: Example 1: heart weight and echocardiogram in DOX ± HNG treated mice; format: in vivo, mouse
Protocol: The heart containing left and right ventricles were fixed with formalin for hematoxylin/eosin and trichrome staining and TUNEL to detect apoptotic cell. Heart sections were saved for immunohistochemistry. Pieces of left ventricle were fixed with gluteraldehyde for later mitochondria analysis by EM. Heart was snapped frozen and stored at −80 degrees (left and right atriums plus the rest of ventricles) for molecular studies (e.g. ANP/BNP).
Echocardiogram was performed on three mice from each group on day 32, and the rest of the mice on days 34 and 38. […] However when corrected for body weight, the heart: body weight ratio was not different among the groups (FIGS. 3A & 3B.)

[17] = patients with cancer, cited from earlier work
[18] = 84 genes examined, threshold of 1.1 fold
[19] = positive up-regulation, negative down-regulation
[20] = echocardiogram days 32-38, vs non-treated and HNG treated mice

Sequence of IGFBP-3 (P17936 28-291, species assumed): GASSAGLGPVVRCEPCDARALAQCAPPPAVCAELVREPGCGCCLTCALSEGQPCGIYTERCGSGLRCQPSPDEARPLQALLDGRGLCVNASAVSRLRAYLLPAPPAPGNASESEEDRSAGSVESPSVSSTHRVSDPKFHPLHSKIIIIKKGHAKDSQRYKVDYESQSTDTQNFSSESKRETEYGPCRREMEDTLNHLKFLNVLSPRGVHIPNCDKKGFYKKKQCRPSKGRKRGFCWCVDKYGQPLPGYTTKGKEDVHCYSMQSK
Sequence of BAX (Q07812 whole entry, species assumed): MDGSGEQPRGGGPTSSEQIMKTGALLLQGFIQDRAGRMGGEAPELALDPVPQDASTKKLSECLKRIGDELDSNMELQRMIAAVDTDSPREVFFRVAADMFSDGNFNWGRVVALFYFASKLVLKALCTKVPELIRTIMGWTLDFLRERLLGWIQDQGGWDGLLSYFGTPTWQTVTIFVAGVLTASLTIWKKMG

In the case of MAPRGFSCLLLLTGEIDLPVKRRA [HNG], the “cardiac parameters (heart rate, LV posterior wall thickening, fractional shortening, ejection fraction)” value [1] is reported as “did not show any altered cardiac parameters”, the “body weight (BW) at the end of 10 weeks” value ([2]; surviving mice, compared to control) is reported as “no significant adverse effect on body weight” and the cardiomyocytes apoptosis (cardiomyocytes [3]) is reported as “did not induce significant levels of cardiomyocytes apoptosis”. For the same molecule, the Body weight [4] was “gained weight; also recorded: increased weight”, the cardiac fibrosis (cardiac fibrosis [5]) was “no changes of fibrosis” and the “expression levels of ANF mRNA” value [6] was “did not significantly altered ANF transcripts”.
For “HN-S7A: HN mutant, Ser7 to Ala; MAPRGFACLLLLTSEIDLPVKRRA (SEQ ID NO: 35)”, the “Cytoprotective Action” value (cells) is listed as “Not effective, prevents HN self-” and the “Characteristics: membrane receptor binding” value (membrane receptor) is listed as “Loss of membrane receptor”.
For `C[C@@H](CN1CC(=O)NC(=O)C1)N1CC(=O)NC(=O)C1` [DRZ, Dexrazoxane], the “Ucp2 protein suppressed by Dox, effect of co-treatment” value ([7]; Dox-treated mice) was “significantly normalized Ucp2 protein suppressed by Dox to control levels”, the “Dox-induced cardiomyocytes apoptosis, effect of co-treatment” value (cardiomyocytes [8]; Dox-treated mice, ten weeks after treatment) was “no markedly protective effect” and the cardiomyocytes apoptosis (cardiomyocytes [8]) was “did not induce significant levels of cardiomyocytes apoptosis”. The “Dox-induced BW loss, effect of co-treatment” value ([2]; in Dox-treated mice) was “attenuated the Dox-induced BW loss”, the cardiac fibrosis (cardiac fibrosis [9]) was “no changes of fibrosis” and the “Dox-induced cardiac fibrosis, effect of co-treatment” value (cardiac fibrosis [9]; in Dox-treated mice) was “did not reduce Dox-induced cardiac fibrosis”. For the same molecule, the “Dox-increased ANF expression, effect of addition” value ([10]; added to Dox-treated mice) was “returned expression of ANF to control levels”, the “expression levels of ANF mRNA” value [10] was “did not significantly altered ANF transcripts” and the “body weight (BW) at the end of 10 weeks” value [11] was “no significant adverse effect on body weight”. For the same molecule, the “Dox-induced cardiac dysfunction, protective effect” value ([12]; Dox-treated mice, summary) was “improved heart function impaired by Dox treatment”, the “cardiac parameters (heart rate, LV posterior wall thickening, fractional shortening, ejection fraction)” value ([12]; without Dox, compared to controls across the treatment period) was “did not show any altered cardiac parameters” and the “Dox-induced Ucp2 and Ucp3 mRNA expression, effect of co-treatment” value ([13]; qRT-PCR, Dox-treated mice) was “reversed Dox-induced Ucp2 and Ucp3 mRNA expression to control levels”. For the same molecule, the “DOX-induced decrease in EF, effect of co-treatment” value ([14]; DOX treated mice, HNG 5 mg/day IP, DRZ 60 mg/week IP) was “ameliorated”, the testicular toxicity ([15]; has been shown) was “induce testicular toxicity” and the significant adverse events ([15]; patients receiving high doses of anthracyclines) was “decreased granulocytes and platelets”.
In the case of “HN-C8P: HN mutant, Cys8 to Pro (MAPRGFSPLLLLTSEIDLPVKRRA; UniProt Q8IVG9 1-24, looked up, variant C8P)”, the “Cytoprotective Action” value (cells) is listed as “Not effective, blocks intracellular” and the “Characteristics: BAX binding” value (BAX) is listed as “Loss of BAX binding”.
For “HN-F6A: HN mutant, Phe6 to Ala (MAPRGASCLLLLTSEIDLPVKRRA; UniProt Q8IVG9 1-24, looked up, variant F6A)”, the “Characteristics: IGFBP-3 binding” value (IGFBP-3) is given as “Loss of IGFBP-3 binding” and the “Cytoprotective Action” value (cells) is given as “Similar/more effective than HN”.
For “HN-C8A: HN mutant, Cys8 to Ala; MAPRGFSALLLLTSEIDLPVKRRA (SEQ ID NO: 33)”, the “Cytoprotective Action” value (cells) is given as “Not effective, prevents HN self-” and the “Characteristics: membrane receptor binding” value (membrane receptor) is given as “Loss of membrane receptor”.
In the case of `COc1cccc2c1C(=O)c1c(O)c3c(c(O)c1C2=O)C[C@@](O)(C(=O)CO)C[C@@H]3O[C@H]1C[C@H](N)[C@H](O)[C@H](C)O1` [DOX, Doxorubicin], the Ucp2 protein expression ([7]; compared to control) is reported as “significantly decreased Ucp2 protein expression”, the cardiomyocytes apoptosis (cardiomyocytes [8]) is reported as “significantly increased cardiomyocytes apoptosis” and the “mice died before the termination of the experiment” value ([2]; 10 mice per group, 10 weeks) is reported as “three”. For the same molecule, the cardiac fibrosis (cardiac fibrosis [9]) was “significantly induced a cardiac fibrosis response”, the “expression levels of ANF mRNA” value [10] was “significantly increased” and the “body weight (BW) at the end of 10 weeks” value [11] was “significantly decreased body weight”. For the same molecule, the ejection fraction ([12]; 9.5 weeks after treatment) was “significantly decreased”, the fractional shortening ([12]; 9.5 weeks after treatment) was “significantly decreased” and the heart rate ([12]; 9.5 weeks after treatment) was “significantly decreased”. The “left ventricle posterior wall thickening” value ([12]; 9.5 weeks after treatment) was “significantly decreased”, the “time after Dox treatment until Dox-induced cardiac dysfunction occurred” value ([12]; accumulative dose of 24 mg/kg body weight in mice) was ≥ 8 weeks and the “number of genes down-regulated as compared to control” value [13, 18] was 5 genes. For the same molecule, the “number of genes up-regulated as compared to control” value [13, 18] was 78 genes, the “number of genes upregulated as compared to control” value ([13]; 84 genes examined, threshold of 2-fold) was 12 genes and the “Bbc3 Dox-induced gene expression (Fold changes as compared to control)” value [13, 19] was 3.27 Fold changes. For the same molecule, the “Bcl2 Dox-induced gene expression (Fold changes as compared to control)” value [13, 19] was 2.23 Fold changes, the “Cox18 Dox-induced gene expression (Fold changes as compared to control)” value [13, 19] was 2.01 Fold changes and the “NefI Dox-induced gene expression (Fold changes as compared to control)” value [13, 19] was 3.07 Fold changes. For the same molecule, the “Sfn Dox-induced gene expression (Fold changes as compared to control)” value [13, 19] was 2.55 Fold changes, the “Slc25a17 Dox-induced gene expression (Fold changes as compared to control)” value [13, 19] was 2.00 Fold changes and the “Slc25a20 Dox-induced gene expression (Fold changes as compared to control)” value [13, 19] was 2.53 Fold changes. For the same molecule, the “Slc25a21 Dox-induced gene expression (Fold changes as compared to control)” value [13, 19] was 2.35 Fold changes, the “Slc25a22 Dox-induced gene expression (Fold changes as compared to control)” value [13, 19] was 3.12 Fold changes and the “Slc25a23 Dox-induced gene expression (Fold changes as compared to control)” value [13, 19] was 5.83 Fold changes. For the same molecule, the “Ucp2 Dox-induced gene expression (Fold changes as compared to control)” value [13, 19] was 2.03 Fold changes, the “Ucp3 Dox-induced gene expression (Fold changes as compared to control)” value [13, 19] was 2.73 Fold changes and the “Ucp2 and Ucp3 mRNA expression” value ([13]; qRT-PCR, heart) was “increased Ucp2 and Ucp3 mRNA expression”. For the same molecule, the Body weight [4] was “started to lose weight at about day 8 to 10; also recorded: significant loss in weight; also recorded: decreased weight”, the “Survival (mice survived / mice in group)” value ([4]; DOX halted after 4th injection, up to day 38-40) was 4/10 and the “Body weight loss, DOX vs DOX+HNG” value ([4]; day 29, p<0.05) was “lost more weight than the mice treated with DOX+HNG; also recorded: losing significantly more weight”. For the same molecule, the Heart weight ([16]; Example 1 mice at sacrifice) was “significantly lower than the non-treated and HNG treated mice; also recorded: smaller hearts than non-treated and HNG treated mice”, the ejection fraction [16, 20] was “decrease in ejection fraction; also recorded: lower ejection fraction” and the fractional ventricular shortening [16, 20] was “decrease; also recorded: lower fractional shortening”. The “Ejection fraction (EF)” value ([14]; adult male mice, DOX 3 mg/week IP for 8 injections, FIG. 6) was “highly significant decrease in EF”, the “incidence of congestive heart failure” value ([17]; cumulative dose of 400 mg/m^2) was 3 to 5% and the “incidence of congestive heart failure” value ([17]; cumulative dose of 550 mg/m^2) was 7 to 26%.
For “HN-L12A: HN mutant, Leu12 to Ala (MAPRGFSCLLLATSEIDLPVKRRA; UniProt Q8IVG9 1-24, looked up, variant L12A)”, the “Cytoprotective Action” value (cells) is listed as “HN antagonist, forms inactive”.
